{"source": "the METLIN SMRT retention time set (Domingo-Almenara et al. 2019)"}
{"experiment": "gradient 5% acetonitrile 3 min, to 50% in 2 min, to 85% in 15 min, held 3 min, 100 µL/min", "details": "column: Zorbax Extend-C18 2.1 x 50 mm; eluents: water / acetonitrile, 0.1% formic acid", "method_in_brief": "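Retention times come from adduct peaks that were picked computationally and then checked by hand. The standards, pure and pooled in mixtures of ~100 molecules, were run on a Zorbax Extend-C18 column (2.1 × 50 mm, 1.8 μm) at 100 μL/min with water and acetonitrile, each with 0.1% formic acid. Detection was by quadrupole time-of-flight mass spectrometry in positive and negative ionization mode, with a dead volume of 40 μL and a dwell volume of 900 μL.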", "units": {"RP-LC retention time": "s"}}
{"smiles": "CSc1ccccc1C(=O)N1CCN(C(=O)C2CC2c2ccc3c(c2)OCO3)CC1", "note": "(configuration not stated)", "RP-LC retention time": 754}
{"smiles": "COc1ccc(CN(Cc2ccccc2)Cc2cc(=O)n3cc(Cl)ccc3n2)cc1OC", "RP-LC retention time": 687}
{"smiles": "COc1ccc(S(=O)(=O)N2CCC(c3noc(-c4ccccc4C)n3)CC2)cc1", "RP-LC retention time": 1150}
{"smiles": "O=C(NC1CC1)[C@@H]1OCCN(C2CC2)[C@H]1c1ccccc1", "RP-LC retention time": 572}
{"smiles": "COc1ccc(-c2nnc(SCc3cc(=O)n4ccsc4n3)o2)cc1", "RP-LC retention time": 722}
{"smiles": "c1ccc(-n2ccnc2SCc2nc(-c3ccc4c(c3)OCO4)no2)cc1", "RP-LC retention time": 790}
{"smiles": "CC1CCN(c2cc(-c3noc(C(=O)NCCN(C)C)n3)ccn2)CC1", "RP-LC retention time": 566}
{"smiles": "CCc1nc2cc(-c3noc(C(C)NC(=O)c4ccccc4)n3)ccc2o1", "note": "(configuration not stated)", "RP-LC retention time": 916}
{"smiles": "CS(=O)(=O)N1CCc2cc(NC(=O)Nc3ccc(Br)cc3F)ccc21", "RP-LC retention time": 954}
{"smiles": "COc1ccc(-c2noc(Cn3ccn(-c4ccc(Cl)cc4)c(=O)c3=O)n2)cc1OC", "RP-LC retention time": 803}
{"smiles": "Cc1ccc2nc(NC3=NCN(CCc4cccs4)CN3)nc(C)c2c1", "RP-LC retention time": 746}
{"smiles": "O=C(Nc1ccc2sccc2c1)c1ccc(Cl)s1", "RP-LC retention time": 996}
{"smiles": "CCCC(NC(=O)Cc1cccc(F)c1)C(=O)Nc1nc2ccccc2[nH]1", "note": "(configuration not stated)", "RP-LC retention time": 691}
{"smiles": "CC(NC(=O)c1ccccc1F)C(=O)N1CCN(c2ccccn2)CC1", "note": "(configuration not stated)", "RP-LC retention time": 574}
{"smiles": "Cc1noc(-c2ccc(OC3CN(C(=O)c4cccn4C)C3)cc2)n1", "RP-LC retention time": 898}
{"smiles": "COc1ccc(-n2c(=O)c(C(=O)Nc3ccc(F)c(F)c3)c(O)c3cccnc32)cc1", "RP-LC retention time": 983}
{"smiles": "CCOC(=O)c1c(C)oc2nc(C)nc(NCCCc3ccccc3)c12", "RP-LC retention time": 1280}
{"smiles": "O=C(CSc1nnc2c(=O)n(-c3ccc(Br)cc3)ccn12)c1ccccc1", "RP-LC retention time": 866}
{"smiles": "CCCn1cc(C(=O)NCCN2CCc3ccccc3C2)c2cccnc21", "RP-LC retention time": 648}
{"smiles": "Cc1nc(CCNC(=O)C2CCN(S(=O)(=O)c3ccc(C4CCCCC4)cc3)CC2)cs1", "RP-LC retention time": 981}
{"smiles": "O=C1Nc2cc(C(=O)N3CCC(N4CCCCC4)CC3)ccc2N2CCCCC12", "note": "(configuration not stated)", "RP-LC retention time": 581}
{"smiles": "COc1ccc(-c2noc(Cn3ccn(-c4c(C)cccc4C)c(=O)c3=O)n2)cc1OC", "RP-LC retention time": 797}
{"smiles": "O=C1COc2cc(S(=O)(=O)N3CCC(C(=O)NC4CCCCC4)CC3)c(Cl)cc2N1", "RP-LC retention time": 772}
{"smiles": "CCN(C(=O)Cc1c(C(=O)O)c(C)cn1C)c1ccccc1", "RP-LC retention time": 722}
{"smiles": "COc1ccc(S(=O)(=O)CCCC(=O)Nc2nccs2)cc1", "RP-LC retention time": 661}
{"smiles": "CCc1nccn1Cc1nc(-c2ccccc2F)no1", "RP-LC retention time": 603}
{"smiles": "Cc1cc(-c2nnc3sc(COc4ccc(Br)cc4)nn23)n[nH]1", "RP-LC retention time": 786}
{"smiles": "CCNc1nc(C)cc(N2CCN(C(=O)Nc3cc(C)cc(C)c3)CC2)n1", "RP-LC retention time": 702}
{"smiles": "O=C1CC(c2nc(-c3ccccc3F)no2)CN1c1ccc2c(c1)OCCO2", "note": "(configuration not stated)", "RP-LC retention time": 860}
{"smiles": "CC1(C)CC(=O)c2cn(-c3ccccc3)c(=O)c(C(=O)NCC3CCCO3)c2C1", "note": "(configuration not stated)", "RP-LC retention time": 738}
{"smiles": "Cc1nc(-c2cc(S(=O)(=O)N(Cc3ccccc3)C(C)C)c(C)s2)sc1C", "RP-LC retention time": 978}
{"smiles": "Cc1ccc(Nc2c(-c3ccc(C)cc3)nc3ccccn23)cc1", "RP-LC retention time": 741}
{"smiles": "CCN1c2ccccc2C(=O)NC12CCN(C(=O)c1cccc(OC)c1)CC2", "RP-LC retention time": 752}
{"smiles": "Cc1ccc2nc(C(=O)NCc3cccc(Cl)c3)cn2c1", "RP-LC retention time": 718}
{"smiles": "CC1=C(C(=O)OCCc2ccccc2)C(c2ccc(C)s2)NC(=O)N1", "note": "(configuration not stated)", "RP-LC retention time": 859}
{"smiles": "O=C([C@@H]1C[C@H](Oc2cccnc2)CN1C(=O)c1ccco1)N1CCCC1", "RP-LC retention time": 553}
{"smiles": "Cc1cnc(C2CC2)n1CCNS(=O)(=O)c1cc(F)cc(F)c1", "RP-LC retention time": 615}
